From patent publication US8906913B2, “Azabicyclohexanes” (Panacea Biotec Limited, priority 2009, dated 2014)
Converted amounts (≈) assume the structure as drawn. Read-outs that look alike come from different tables or passages of the source. Marks after values point to notes of the source that are not given here.

Experiments:
[1] = test system: Enterococcus faecalis ATCC 29212 Vancomycin Sensitive; experiment: In-vitro antibacterial activity, broth microdilution MIC; type: cell-based
Method: (§1) The in-vitro antibacterial activity of the compounds of the present invention (as described in Table 7) was determined by a broth microdilution following the guidelines prescribed by the Clinical and Laboratory Standards Institute (CLSI). This method is described in the CLSI Document M7-A7, Vol. 26, No. 2, “Methods for Dilution Antimicrobial Susceptibility Test for Bacteria that Grow Aerobically; Approved Standard-Seventh Edition”, which is incorporated herein by reference. Minimum Inhibitory Concentration (MIC) is defined as the minimum concentration of test compound which inhibits the growth of bacteria as visible or seen by the naked eye. This test can also be carried out by agar dilution method.
(§2) The compounds of the present invention were tested against a panel of standard microorganisms obtained from ATCC (American type culture collection). Linezolid was used as comparator in all the tests.
(§3) In the broth microdilution method, the compound was dissolved in dimethylsulfoxide and two fold serial dilutions were carried out in 96 well microtitre plates. The inoculum was prepared by adjusting the turbidity of actively growing broth culture and added to the wells to obtain a final bacterial count of ˜2-5×10^4 CFU/well. The microtitre plates were incubated at 35±2° C. for 16-20 h and then read visually.

[2] = test system: Enterococcus faecium ATCC 700221 VRE (Vancomycin resistant E. faecium); experiment: as above; type: cell-based
Method: as §1, §2, §3

[3] = test system: Staphylococcus aureus ATCC 29213 MSSA (Methicillin sensitive); experiment: as above; type: cell-based
Method: as §1, §2, §3

[4] = test system: Staphylococcus aureus ATCC 33591 MRSA (Methicillin resistant); experiment: as above; type: cell-based
Method: as §1, §2, §3

[5] = test system: male SWISS albino mice; experiment: Forced Swim Test; type: in vivo; details: for inhibition in vivo at 32 mg/kg: Mus musculus, 0.25 h, read-out: % decrease in immobility time (dose 32 mg/kg)
Method: This test was conducted according to the method of Porsolt et al. (Porsolt, R. D., et al., Behavioural despair in mice: A primary screening test for antidepressants. Arch. in Pharmacodyn. Ther., 229, pp 327-336 (1977)).
A test compound was suspended in deionized water, unless otherwise specified, and this suspension was orally administered to male SWISS albino mice (7 to 9 week old). 15 min later, the mice were placed in a water tank having a water depth of 15 cm and a water temperature of 25±1° C. and immediately thereafter allowed to swim for 6 min. Then, a time during which the mouse was immobile (immobility time) was measured for the last 4 min.

[6] = ATCC29212, Table 7, E. faecalis vancomycin sensitive, broth microdilution, 35±2° C., 16-20 h, read-out: MIC ATCC 29212
[7] = Table 7, broth microdilution, 35±2° C., 16-20 h, read-out: MIC ATTC 700221
[8] = Table 7, S. aureus MSSA, broth microdilution, 35±2° C., 16-20 h, read-out: MIC ATCC 29213
[9] = Table 7, S. aureus MRSA, broth microdilution, 35±2° C., 16-20 h, read-out: MIC ATCC 33591
[10] = Table 8, mice, oral, 32 mg/kg, suspended in deionized water, 15 min before test
[11] = Table 8, mice, oral, suspended in deionized water, 15 min before test

| SMILES | MIC [1, 6] [mg/L] | MIC [2, 7] [mg/L] | MIC [3, 8] [mg/L] | MIC [4, 9] [mg/L] | other results |
| --- | --- | --- | --- | --- | --- |
| CC(=O)N1CC2CC2(c2ccc(N3C[C@H](Cn4ccnn4)OC3=O)cc2)C1 (stereo partly shown) | 2 (≈ 5.44 µM) | 1 (≈ 2.72 µM) | 1 (≈ 2.72 µM) | 2 (≈ 5.44 µM) | – |
| CC(=O)NC[C@H]1CN(c2ccc(C34CC3CN(c3ccc(F)nc3)C4)cc2)C(=O)O1 (stereo partly shown) | 1 (≈ 2.44 µM) | 0.5 (≈ 1.22 µM) | 1 (≈ 2.44 µM) | 0.5 (≈ 1.22 µM) | – |
| CCN1CC2CC2(c2ccc(N3CCOC3=O)cc2)C1 (stereo not shown) | – | – | – | – | inhibition in vivo at 32 mg/kg ([5]; po): 99.2 ± 0.8% |
| CC(=O)NC[C@H]1CN(c2ccc(N3CCOCC3)c(F)c2)C(=O)O1 [Linezolid, reference compound] | 2 (≈ 5.93 µM) | 1 (≈ 2.96 µM) | 2 (≈ 5.93 µM) | 1 (≈ 2.96 µM) | – |
| CC(=O)NC[C@H]1CN(c2ccc(C34CC3CN(C(=O)OC(C)C)C4)cc2)C(=O)O1 (stereo partly shown) | 2 (≈ 4.98 µM) | 1 (≈ 2.49 µM) | 2 (≈ 4.98 µM) | 1 (≈ 2.49 µM) | – |
| CC(=O)NCC(=O)N1CC2CC2(c2ccc(N3C[C@H](CNC(C)=O)OC3=O)cc2)C1 (stereo partly shown) | 2 (≈ 4.83 µM) | 4 (≈ 9.65 µM) | 4 (≈ 9.65 µM) | 4 (≈ 9.65 µM) | – |
| CC(=O)NC[C@H]1CN(c2ccc(C34CC3CN(C(=O)c3cccnc3)C4)cc2)C(=O)O1 (stereo partly shown) | 2 (≈ 4.76 µM) | 2 (≈ 4.76 µM) | 2 (≈ 4.76 µM) | 1 (≈ 2.38 µM) | – |
| CCN1CC2C(COC)C2(c2ccc(N3CCCC3)cc2)C1 (stereo not shown) [drawing 531] | – | – | – | – | inhibition in vivo at 32 mg/kg [5, 10]: 97.2 ± 1.2% |
| CC1CN(c2ccc([C@]34CNC[C@H]3C4)cc2)CC(C)O1 (stereo partly shown) | – | – | – | – | % decrease in immobility time (dose 64 mg/kg) [5, 11]: 63.9 ± 4.8% |
| CC(=O)NC[C@H]1CN(c2ccc(C34CC3CN(c3ccccn3)C4)cc2)C(=O)O1 (stereo partly shown) | 0.5 (≈ 1.27 µM) | 1 (≈ 2.55 µM) | 1 (≈ 2.55 µM) | 0.5 (≈ 1.27 µM) | – |
| COC(=O)N1CC2CC2(c2ccc(N3C[C@H](CNC(C)=O)OC3=O)cc2)C1 (stereo partly shown) | 2 (≈ 5.36 µM) | 1 (≈ 2.68 µM) | 2 (≈ 5.36 µM) | 1 (≈ 2.68 µM) | – |
| CCN1CC2CC2(c2ccc(N3CC(C)OC(C)C3)cc2)C1 (stereo not shown) | – | – | – | – | inhibition in vivo at 32 mg/kg [5, 10]: 81.6 ± 10.1% |
| CC(=O)NC[C@H]1CN(c2ccc(C34CC3CN(C(=O)C(=O)c3ccco3)C4)cc2)C(=O)O1 (stereo partly shown) | 1 (≈ 2.29 µM) | 0.5 (≈ 1.14 µM) | 1 (≈ 2.29 µM) | 1 (≈ 2.29 µM) | – |
| CC(=O)NC[C@H]1CN(c2ccc(C34CC3CN(Cc3cccnc3)C4)cc2)C(=O)O1 (stereo partly shown) | 8 (≈ 19.7 µM) | 2 (≈ 4.92 µM) | 4 (≈ 9.84 µM) | 4 (≈ 9.84 µM) | – |
| CC(=O)NC[C@H]1CN(c2ccc(C34CC3CN(c3nccs3)C4)cc2)C(=O)O1 (stereo partly shown) | 0.125 (≈ 0.314 µM) | 0.5 (≈ 1.25 µM) | 0.5 (≈ 1.25 µM) | 0.25 (≈ 0.627 µM) | – |
| CCN1CC2CC2(c2cc3cc(N4CCOCC4)ccc3s2)C1 (stereo not shown) | – | – | – | – | % decrease in immobility time (dose 64 mg/kg) [5, 11]: 38.4 ± 2.7% |
| COC(=O)NC[C@H]1CN(c2ccc(C34CC3CN(C(C)=O)C4)cc2)C(=O)O1 (stereo partly shown) | 2 (≈ 5.36 µM) | 1 (≈ 2.68 µM) | 2 (≈ 5.36 µM) | 1 (≈ 2.68 µM) | – |
| COCCN1CC2CC2(c2ccc(N3CCOCC3)cc2)C1 (stereo not shown) | – | – | – | – | % decrease in immobility time (dose 64 mg/kg) [5, 11]: 62.4 ± 16.3% |
| CCN1C[C@@H]2C[C@]2(c2ccc(N3CC(C)OC(C)C3)cc2)C1 (stereo partly shown) | – | – | – | – | inhibition in vivo at 32 mg/kg [5, 10]: 80.9 ± 8.7% |
| COCC1C2CNCC21c1ccc(N2CCOCC2)cc1 (stereo not shown) | – | – | – | – | % decrease in immobility time (dose 64 mg/kg) ([5]; Table 8, mice, oral, vehicle 0.25% CMC): 60.8 ± 20.9^z % |
| CC(=O)NC[C@H]1CN(c2ccc(C34CC3CN(C(C)=O)C4)cc2)C(=O)O1 (stereo partly shown) [drawing 533] | – | – | – | – | MIC ([1]; ATCC29212, Table 9, E. faecalis, read-out: Antimicrobial activity (in vitro MIC) ATCC 29212): 2 mg/L (≈ 5.6 µM); MIC ([2]; Table 9, read-out: Antimicrobial activity (in vitro MIC) ATCC 700221): 2 mg/L (≈ 5.6 µM); MIC ([3]; Table 9, S. aureus MSSA, read-out: Antimicrobial activity (in vitro MIC) ATCC 29213): 2 mg/L (≈ 5.6 µM); MIC ([4]; Table 9, S. aureus MRSA, read-out: Antimicrobial activity (in vitro MIC) ATCC 33591): 1 mg/L (≈ 2.8 µM) |
| CCN1CC2CC2(c2ccc(N3CCn4cnnc4C3)cc2)C1 (stereo not shown) | – | – | – | – | % decrease in immobility time (dose 64 mg/kg) [5, 11]: 89.6 ± 10.4% |
| COC(=O)N1CC2CC2(c2ccc(N3C[C@H](Cn4ccnn4)OC3=O)cc2)C1 (stereo partly shown) | 2 (≈ 5.22 µM) | 1 (≈ 2.61 µM) | 1 (≈ 2.61 µM) | 0.5 (≈ 1.3 µM) | – |
| CCN1CC2CC2(c2ccc(N3CCC(F)C3)cc2)C1 (stereo not shown) | – | – | – | – | inhibition in vivo at 32 mg/kg [5, 10]: 77.1 ± 11.2% |
| CCOC(=O)OCC(=O)N1CC2CC2(c2ccc(N3C[C@H](CNC(C)=O)OC3=O)cc2)C1 (stereo partly shown) | 0.5 (≈ 1.12 µM) | 0.5 (≈ 1.12 µM) | 2 (≈ 4.49 µM) | 1 (≈ 2.24 µM) | – |
